{"source": "patent US9326539B2", "about": "“Compositions comprising dietary fat complexers and methods for their use” (Soho Flordis International Pty. Ltd., priority 2002, dated 2016)", "assay": "Wistar rat low fat/high fat diet feeding study: food and energy intake, body weight, body composition", "format": "in vivo, Wistar rats", "conditions": "6 week study, α-cyclodextrin:fat 1:10 w/w in diet", "excerpt": "To examine the effect of α-cyclodextrin on body weight gain and plasma lipid levels in animals fed high fat and low fat diets, we conducted a short-term feeding study using Wistar rats. Forty-two male Wistar rats, 10 weeks old, were obtained from Harlan-Sprague Dawley. Following a one-week adaptation while being fed the control low fat diet (LF), they were divided equally into two groups, one low-fat (LF) diet and the other high-fat (HF) diet. These two groups were further divided into two subgroups. Two groups were fed the LF or HF diet and served as controls for the other two test groups which were fed the LF or HF diet containing α-cyclodextrin, wherein the amount of α-cyclodextrin was such that the ratio of α-cyclodextrin to fat in the food was 1:10 w/w. […]\nIf this were the case it would be difficult to imagine being able to feed enough of the α-cyclodextrin to an animal in order to complex sufficient triglycerides to make a significant difference in body weight as triglycerides and α-cyclodextrin have similar molecular weights. However, from the data disclosed herein wherein e.g., a diet comprising 4% α-cyclodextrin and 40% fat inhibits weight gain and reduces body fat mass, as the molecular weights are very similar, we have calculated that one α-cyclodextrin molecule can complex approximately nine molecules of triglyceride, the equivalent of 27 free fatty acids. […]"}
{"compound": "OC[C@H]1O[C@@H]2O[C@H]3[C@H](O)[C@@H](O)[C@@H](O[C@H]4[C@H](O)[C@@H](O)[C@@H](O[C@H]5[C@H](O)[C@@H](O)[C@@H](O[C@H]6[C@H](O)[C@@H](O)[C@@H](O[C@H]7[C@H](O)[C@@H](O)[C@@H](O[C@H]1[C@H](O)[C@H]2O)O[C@@H]7CO)O[C@@H]6CO)O[C@@H]5CO)O[C@@H]4CO)O[C@@H]3CO", "note": "[α-cyclodextrin]", "values": [{"measurement": "rate of body weight gain", "result": "gained weight at a slower rate relative to their respective control groups"}]}
